Target: Human immunodeficiency virus type 1 protease (Human immunodeficiency virus 1, UniProt Q72874, Q7K)
Experiment: Inhibition of HIV1 protease Q7K mutant by FRET method

| SMILES | Ki (read-out: Ki) | Ki (read-out: pKi (converted)) |
| --- | --- | --- |
| COc1cccc(S(=O)(=O)N(CC2CC2)C[C@@H](O)[C@H](Cc2ccccc2)NC(=O)c2cccc(C)n2)c1 | 14600 nM | 14500 nM |
| CNC(=O)CCC(=O)N[C@@H](Cc1ccccc1)[C@H](O)CN(C[C@H](C)O)S(=O)(=O)c1cccc(OC)c1 | 764 nM | 759 nM |
| Cc1cccc(C(=O)N[C@@H](Cc2ccccc2)[C@H](O)CN(C[C@H](C)O)S(=O)(=O)c2ccco2)n1 | > 10000 nM | – |
| Cc1cccc(OS(=O)(=O)N(C[C@H](C)O)C[C@@H](O)[C@H](Cc2ccccc2)NC(=O)C[C@H]2C=CCC2)c1 | 13600 nM | 13500 nM |
| COc1cccc(S(=O)(=O)N(C[C@@H](O)[C@H](Cc2ccccc2)NC(=O)c2cccc(C)n2)C[C@@H](C)O)c1 | 12200 nM | 12300 nM |
| CNC(=O)CCC(=O)N[C@@H](Cc1ccccc1)[C@H](O)CN(C[C@H](C)O)S(=O)(=O)c1ccco1 | 543 nM | 537 nM |
| Cc1cccc(OS(=O)(=O)N(CC2CC2)C[C@@H](O)[C@H](Cc2ccccc2)NC(=O)C[C@H]2C=CCC2)c1 | 2020 nM | 2040 nM |
| O=C(C[C@H]1C=CCC1)N[C@@H](Cc1ccccc1)[C@H](O)CN(CC1CC1)S(=O)(=O)c1ccco1 | > 10000 nM | – |
| Cc1cccc(OS(=O)(=O)N(C[C@@H](O)[C@H](Cc2ccccc2)NC(=O)C[C@H]2C=CCC2)C[C@@H](C)O)c1 | > 10000 nM | – |
| COc1cccc(S(=O)(=O)N(Cc2cccs2)C[C@@H](O)[C@H](Cc2ccccc2)NC(=O)c2cc(O)c(O)c(O)c2)c1 | 1150 nM | 1150 nM |
| COc1cccc(S(=O)(=O)N(Cc2cccs2)C[C@@H](O)[C@H](Cc2ccccc2)NC(=O)[C@H]2CCCC[C@@H]2C)c1 | 582 nM | 589 nM |
| O=C(Cc1cccs1)N[C@@H](Cc1ccccc1)[C@H](O)CN(Cc1cccs1)S(=O)(=O)c1cc(F)c(F)cc1F | 2360 nM | 2340 nM |
| COc1cccc(S(=O)(=O)N(Cc2cccs2)C[C@@H](O)[C@H](Cc2ccccc2)Nc2cc(F)c(F)c(O)c2F)c1 | 515 nM | 513 nM |
| O=C(N[C@@H](Cc1ccccc1)[C@H](O)CN(Cc1cccs1)S(=O)(=O)c1cc(F)c(F)cc1F)c1ccnnc1 | 1060 nM | 1070 nM |
| CC(=O)/C=C/C(=O)N[C@@H](Cc1ccccc1)[C@H](O)CN(Cc1cccs1)S(=O)(=O)c1cc(F)c(F)cc1F | 610 nM | 617 nM |
| CNC(=O)CCC(=O)N[C@@H](Cc1ccccc1)[C@H](O)CN(C[C@@H](C)O)S(=O)(=O)c1cccc(OC)c1 | 1170 nM | 1170 nM |
| Cc1cccc(C(=O)N[C@@H](Cc2ccccc2)[C@H](O)CN(CC2CC2)S(=O)(=O)c2ccco2)n1 | > 10000 nM | – |
| COc1cccc(S(=O)(=O)N(C[C@H](C)O)C[C@@H](O)[C@H](Cc2ccccc2)NC(=O)c2cccc(C)n2)c1 | 4760 nM | 4790 nM |
| Cc1oncc1S(=O)(=O)N(Cc1cccs1)C[C@@H](O)[C@H](Cc1ccccc1)NC(=O)/C=C/C(C)C(F)(F)F (stereo partly specified) | 13200 nM | 13200 nM |
| CC(=O)/C=C/C(=O)N[C@@H](Cc1ccccc1)[C@H](O)CN(Cc1cccs1)S(=O)(=O)c1cnoc1C | 26300 nM | 26300 nM |
